According to patent US9745283B2, “Uracil derivatives as AXL and c-MET kinase inhibitors” (priority 2011, dated 2017):

Target: recombinant human baculovirus-expressed cMET (Homo sapiens (Human), UniProt P08581)
Test: C-MET Kinase Assay (HTRF KinEASE)
Assay type: biochemical
Conditions: average of two or more determinations; read-out: c-MET IC50
Description: The cMET kinase assay was performed in 384-well Fluotrac™ 200 HiBase microplates using the HTRF KinEASE™ assay described above for AXL except that the assay volume was reduced to half. Enzyme concentration was 8 ng/mL of recombinant human baculovirus-expressed cMET while the substrate concentrations were 0.1 μM and 0.02 μM for the biotinylated peptide and ATP, respectively. Instead of the Multidrop Combi, the BioRAPTR® FRD microfluidic workstation (Beckman Coulter, Brea, Calif.) was utilized for reagent additions.
Inhibition curves for compounds were generated by plotting percent control activity versus log 10 of the concentration of compound. IC50 values were calculated by nonlinear regression using the sigmoidal dose-response (variable slope) equation in GraphPad Prism as follows: y=bottom+(top−bottom)/(1+10(log IC50−x)*Hill Slope) where y is the % kinase activity at a given concentration of compound, x is the logarithm of the concentration of compound, bottom is the % of control kinase activity at the highest compound concentration tested, and top is the % of control kinase activity at the lowest compound concentration examined. The values for bottom and top were fixed at 0 and 100, respectively.

SMILES | IC50 [nM]
COc1cc2nccc(Oc3c(F)cc(NC(=O)c4c[nH]c(=O)n(-c5ccc(F)cc5)c4=O)cc3F)c2cc1OC [Example 89, 3-(4-Fluoro-phenyl)-2,4-dioxo-1,2,3,4-tetrahydropyrimidine-5-carboxylic acid [4-(6,7-dimethoxy-quinolin-4-yloxy)-3,5-difluoro-phenyl]-amide] | 101 to 1000
COc1cc2nccc(Nc3ccc(NC(=O)c4cn(C(C)C)c(=O)n(-c5ccc(F)cc5)c4=O)cc3)c2cc1OC [Example 135, 3-(4-Fluorophenyl)-1-isopropyl-2,4-dioxo-1,2,3,4-tetrahydropyrimidine-5-carboxylic acid [4-(6,7-dimethoxyquinolin-4-ylamino)-phenyl]-amide] | 101 to 1000
COc1cc2c(Oc3ccc(NC(=O)c4cn(C(C)C)c(=O)n(-c5ccc(F)cc5)c4=O)cc3F)ccnc2cc1OCCCN1CCOCC1 [Example 47, 3-(4-Fluorophenyl)-1-isopropyl-2,4-dioxo-1,2,3,4-tetrahydropyrimidine-5-carboxylic acid {3-fluoro-4-[6-methoxy-7-(3-morpholin-4-yl-propoxy)-quinolin-4-yloxy]phenyl}-amide] | 10 to 100
COc1cc2nccc(Oc3ccc(NC(=O)c4cn(CCCOCc5ccccc5)c(=O)n(-c5ccc(F)cc5)c4=O)cc3F)c2cc1OC [Example 13, 1-(3-Benzyloxypropyl)-3-(4-fluorophenyl)-2,4-dioxo-1,2,3,4-tetrahydropyrimidine-5-carboxylic acid [4-(6,7-dimethoxyquinolin-4-yloxy)-3-fluorophenyl]-amide] | 10 to 100
COc1cc2nccc(Oc3ccc(NC(=O)c4cn(CCCc5ccccc5)c(=O)n(-c5ccc(F)cc5)c4=O)cc3F)c2cc1OC [Example 81, 3-(4-Fluoro-phenyl)-2,4-dioxo-1-(3-phenyl-propyl)-1,2,3,4-tetrahydro-pyrimidine-5-carboxylic acid [4-(6,7-dimethoxy-quinolin-4-yloxy)-3-fluoro-phenyl]-amide] | 10 to 100
CCn1cc(C(=O)Nc2ccc(Oc3ccnc4cc(OC)c(OC)cc34)c(F)c2)c(=O)n(CC)c1=O [Example 93, 1,3-Diethyl-2,4-dioxo-1,2,3,4-tetrahydro-pyrimidine-5-carboxylic acid [4-(6,7-dimethoxy-quinolin-4-yloxy)-3-fluoro-phenyl]-amide] | 10 to 100
CCn1nc(C(=O)Nc2ccc(Oc3ccnc4cc(OC)c(OC)cc34)cc2OC)c(=O)n(-c2ccc(F)cc2)c1=O [Example 170, 2-Ethyl-4-(4-fluoro-phenyl)-3,5-dioxo-2,3,4,5-tetrahydro-1,2,4-triazine-6-carboxylic acid [4-(6,7-dimethoxy-quinolin-4-yloxy)-2-methoxy-phenyl]-amide] | 10 to 100
COc1cc2nccc(Oc3ccc(NC(=O)c4cn(CC(=O)OC(C)(C)C)c(=O)n(-c5ccc(F)cc5)c4=O)cc3F)c2cc1OC [Example 70, [5-[4-(6,7-Dimethoxy-quinolin-4-yloxy)-3-fluoro-phenylcarbamoyl]-3-(4-fluoro-phenyl)-2,4-dioxo-3,4-dihydro-2H-pyrimidin-1-yl]-acetic acid tert-butyl ester] | 10 to 100
CCn1cc(C(=O)Nc2ccc(Nc3ccnc4cc(OC)c(OC)cc34)cc2)c(=O)n(-c2ccc(F)cc2)c1=O [Example 134, 1-Ethyl-3-(4-fluoro-phenyl)-2,4-dioxo-1,2,3,4-tetrahydro-pyrimidine-5-carboxylic acid [4-(6,7-dimethoxy-quinolin-4-ylamino)-phenyl]-amide] | 101 to 1000
CCn1cc(C(=O)Nc2ccc(Oc3ccnc4cc(OC)c(OC)cc34)c(C)c2)c(=O)n(-c2ccc(F)cc2)c1=O [Example 148, 1-Ethyl-3-(4-fluoro-phenyl)-2,4-dioxo-1,2,3,4-tetrahydro-pyrimidine-5-carboxylic acid [4-(6,7-dimethoxy-quinolin-4-yloxy)-3-methyl-phenyl]-amide] | 10 to 100
CCn1cc(C(=O)Nc2ccc(Oc3ncnc4cc(OC)c(OC)cc34)cc2)c(=O)n(-c2ccc(F)cc2)c1=O [Example 142, 1-Ethyl-3-(4-fluorophenyl)-2,4-dioxo-1,2,3,4-tetrahydro-pyrimidine-5-carboxylic acid [4-(6,7-dimethoxy-quinazolin-4-yloxy)-phenyl]-amide] | 10 to 100
CCn1c(=O)c(C(=O)Nc2ccc(Oc3ccnc4cc(OC)c(OC)cc34)c(F)c2)nn(C)c1=O [Example 123, 4-Ethyl-2-methyl-3,5-dioxo-2,3,4,5-tetrahydro-[1,2,4]triazine-6-carboxylic acid [4-(6,7-dimethoxyquinolin-4-yloxy)-3-fluoro-phenyl]-amide] | 101 to 1000
COc1cc2nccc(Oc3ccc(NC(=O)c4cn(C(C)C)c(=O)n(-c5ccc(F)cc5)c4=O)cc3C3CC3)c2cc1OC [Example 60, 3-(4-Fluoro-phenyl)-1-isopropyl-2,4-dioxo-1,2,3,4-tetrahydro-pyrimidine-5-carboxylic acid [3-cyclopropyl-4-(6,7-dimethoxy-quinolin-4-yloxy)-phenyl]-amide] | 101 to 1000
CCn1nc(C(=O)Nc2ccc(Oc3ccnc4cc(OC)c(OC)cc34)c(C(F)(F)F)c2)c(=O)n(-c2ccc(F)cc2)c1=O [Example 169, 2-Ethyl-4-(4-fluoro-phenyl)-3,5-dioxo-2,3,4,5-tetrahydro-1,2,4-triazine-6-carboxylic acid [4-(6,7-dimethoxy-quinolin-4-yloxy)-3-trifluoromethyl-phenyl]-amide] | < 10
C=CCn1cc(C(=O)Nc2ccc(Oc3ccnc4cc(OC)c(OC)cc34)c(F)c2)c(=O)n(CC=C)c1=O [Example 96, 1,3-Diallyl-2,4-dioxo-1,2,3,4-tetrahydro-pyrimidine-5-carboxylic acid [4-(6,7-dimethoxy-quinolin-4-yloxy)-3-fluoro-phenyl]-amide] | 10 to 100
CCn1cc(C(=O)Nc2ccc(Oc3ccnc4cc(OC)c(OC)cc34)c(C(C)C)c2)c(=O)n(-c2ccc(F)cc2)c1=O [Example 155, 1-Ethyl-3-(4-fluoro-phenyl)-2,4-dioxo-1,2,3,4-tetrahydro-pyrimidine-5-carboxylic acid [4-(6,7-dimethoxy-quinolin-4-yloxy)-3-isopropyl-phenyl]-amide] | 10 to 100
COc1cc2nccc(Oc3ccc(NC(=O)c4cn(CCCCO)c(=O)n(-c5ccc(F)cc5)c4=O)cc3F)c2cc1OC [Example 55, 3-(4-Fluorophenyl)-1-(4-hydroxybutyl)-2,4-dioxo-1,2,3,4-tetrahydropyrimidine-5-carboxylic acid [4-(6,7-dimethoxyquinolin-4-yloxy)-3-fluorophenyl]-amide] | 10 to 100
CCn1cc(C(=O)Nc2ccc(Oc3ccnc4cc(OCCN5CCOCC5)c(OC)cc34)c(F)c2)c(=O)n(-c2ccc(F)cc2)c1=O [Example 45, 1-Ethyl-3-(4-fluorophenyl)-2,4-dioxo-1,2,3,4-tetrahydropyrimidine-5-carboxylic acid {3-fluoro-4-[6-methoxy-7-(2-morpholin-4-yl-ethoxy)-quinolin-4-yloxy]phenyl}-amide] | 10 to 100
COc1cc(Oc2ccnc3cc(OC)c(OC)cc23)ccc1NC(=O)c1nn(C(C)C)c(=O)n(-c2ccc(F)cc2)c1=O [Example 166, 4-(4-Fluoro-phenyl)-2-isopropyl-3,5-dioxo-2,3,4,5-tetrahydro-1,2,4-triazine-6-carboxylic acid [4-(6,7-dimethoxy-quinolin-4-yloxy)-2-methoxy-phenyl]-amide] | 101 to 1000
